Source: patent US4559362A, “Immunopotentiator” (Zaidan Hojin Biseibutsu Kagaku Kenkyu Kai, priority 1982, dated 1985)
≈ marks a conversion by molar mass, not a printed value. Read-outs that look alike come from different tables or passages of the source.

Key:
[1] = tested on: S-180 sarcoma; experiment: Antitumor effect on S180 sarcoma transplanted subcutaneously into ICR mice; format: in vivo; conditions: for Weight of tumor ± S.D.: 10 times on alternative days, day 30, in mg (unit assumed)
Experimental: (§1) The pharmacological effects of spermidine will be illustrated by reference to the following experimental examples, in which spermidine was administered as its phosphate dissolved in physiological saline.
(a) The antitumor effect of spermidine was investigated on IMC carcinoma successively transplanted into CDF1 mice and on S180 sarcoma transplanted into ICR mice. 1×10^6 tumor cells of each of the above type were transplanted subcutaneously into such mice (Day 0). From Day 1 onwards, spermidine was intraperitoneally injected a total of 10 times (once daily on alternative days). Thirty days after transplantation of tumor cells, the tumor was removed and weighed to evaluate the effect of spermidine.

[2] = tested on: alternative pathway of the complement system; experiment: Activation of the alternative pathway of the complement system (hemolysis of rabbit blood cells in normal human serum); format: biochemical; conditions: for % consumption of complement component C3: 37° C., 60 minutes
Experimental: The effect of spermidine on the activation of the alternative pathway of the complement system was investigated in accordance with the method of Platts-Mills and Ishizaka (Platt-Mills, T. A. E. and Ishizaka, K.: Activation of the alternative pathway of human complement by rabbit cells. J. Immune. 113, 348-358, 1974).
Spermidine was added to normal human serum in EGTA buffer solution, and the mixture was heated at 37° C. for 60 minutes. Rabbit blood cells were then added to the mixture. The degree of hemolysis was measured with a spectrophotometer at 412 nm to evaluate the effect of spermidine.

[3] = tested on: interleukine-2 production (T blast cells); experiment: Interleukine-2 production by spleen cells, activity of promoting the proliferation of T blast cells; format: cell-based, CDF1 mice; conditions: for activity at 0.001 µg/mL / activity at 0.01 µg/mL / activity at 0.1 µg/mL / activity at 1 µg/mL: Mus musculus, 24 h, control = 100, read-out: ^3 H-thymidine incorporation, T blast cells; for activity at 0.001 µg/mL: 0.001 μg/ml; for activity at 0.01 µg/mL: 0.01 μg/ml; for activity at 0.1 µg/mL: 0.1 μg/ml; for activity at 1 µg/mL: 1 μg/ml
Experimental: (§2) The effect of spermidine on the production of interleukine was investigated in accordance with the method of Larsson et al. (Larsson, E-L: Mechanism of T cell activation II. Antigen- and lectin-dependent acquisition of responsiveness to TCGF is a nonmitogenic, active response of resting T cells. J. Immunol. 126, 1323-1326, 1981).
(§3) Spermidine in a varying concentration was added to 1×10^7 spleen cells/ml of CDF1 mice. In the presence or absence of added concanavalin A (2 μg/ml), the stimulant of interleukine-2 production, the cells were then cultured in a cell incubator kept at 37° C. and at a carbon dioxide concentration of 5% for 24 hours. After completion of the incubation, α-methylmannoside was added to the supernatant to inactivate concanavalin A. The supernatant was collected to examine its interleukine-2 activity. The interleukine-2 activity was determined by the activity of promoting the proliferation of T blast cells and the activity of promoting the division of thymocytes. The latter two activities were determined by measuring ^3 H-thymidine incorporations to both types of cells.

[4] = tested on: L-1210 cells; experiment: Growth inhibitory effect on cultured L-1210 cells; format: cell-based; conditions: Mus musculus, L1210, 48 hours, 37° C., read-out: concentration at which 50% of the original cells were inhibited from growth
Experimental: A study was conducted on the growth inhibitory effect of spermidine on cultures of IMC cancer cells and L-1210 cells. IMC cancer cells were cultured in an RPMI 1640 medium containing 10% bovine fetus serum and 2-mercaptoethanol, and L-1210 cells in an MEM medium containing 10% calf serum, for 48 hours at 37° C. in 5% carbon dioxide. The number of cultured cells was counted with a Coulter counter to evaluate the degree of cell proliferation. Spermidine was added at the start of incubation.

[5] = tested on: mouse leukemia L-1210; experiment: Survival of CDF1 mice transplanted with mouse leukemia L-1210; format: in vivo; conditions: for Increase of life span: control = 100, mice surviving 60 days excluded
Experimental: as §1
(b) 1×10^2 mouse leukemia L-1210 cells were transplanted into CDF1 mice by subcutaneous injection (Day 0). From Day 1 onwards, 0.5 to 5 mg/kg of spermidine was administered in total of 10 times, once daily on alternative days, to investigate on the number of days the mice survived.

[6] = tested on: interleukine-2 production (Thymocytes); experiment: Interleukine-2 production by spleen cells, activity of promoting the division of thymocytes; format: cell-based, CDF1 mice; conditions: for activity at 0.001 µg/mL / activity at 0.01 µg/mL / activity at 0.1 µg/mL / activity at 1 µg/mL: Mus musculus, Thymocyte, 24 h, control = 100, read-out: ^3 H-thymidine incorporation, Thymocytes; for activity at 0.001 µg/mL: 0.001 μg/ml; for activity at 0.01 µg/mL: 0.01 μg/ml; for activity at 0.1 µg/mL: 0.1 μg/ml; for activity at 1 µg/mL: 1 μg/ml
Experimental: as §2, §3

[7] = 5 mg/kg, 10 times on alternative days

## NCCCCNCCCN [Spermidine, spermidine]
[1]; 0.05 mg/kg/day i.p.
  % inhibition (weight of tumor): 9%
  Weight of tumor ± S.D.: 5193 ± 1522
[1]; 0.5 mg/kg/day i.p.
  % inhibition (weight of tumor): 35%
  Weight of tumor ± S.D.: 3689 ± 1331
[1]; 5 mg/kg/day i.p.
  % inhibition (weight of tumor): 63%
  Weight of tumor ± S.D.: 2087 ± 1040
[1]; 50 mg/kg/day i.p.
  % inhibition (weight of tumor): 43%
  Weight of tumor ± S.D.: 3245 ± 1106
[2]; 2 mg/ml
  % consumption of complement component C3: 0%
[2]; 4 mg/ml
  % consumption of complement component C3: 66.1%
[2]; 8 mg/ml
  % consumption of complement component C3: 83.6%
[2]; 4 to 8 mg/ml
  activation of the alternative pathway of complement: clearly activates the alternative pathway of complement
[3]
  optimal concentration (interleukin-2 production): 0.1 µg/mL
[3]; with Con A (2 μg/ml)
  activity at 0.001 µg/mL: 94%
  activity at 0.01 µg/mL: 153%
  activity at 0.1 µg/mL: 157%
  activity at 1 µg/mL: 152%
[3]; without Con A
  activity at 0.001 µg/mL: 137%
  activity at 0.01 µg/mL: 152%
  activity at 0.1 µg/mL: 166%
  activity at 1 µg/mL: 136%
[4]
  IC50: 2.8 µg/mL (≈ 19.3 µM)
[5]; 0.5 mg/kg
  Survival rate on Day 60: 1/10
  Increase of life span: 109%
[5]; 0.5 mg/kg, 10 times on alternative days
  Survival period: 16.0 ± 3.1 days
[5]; 5 mg/kg
  Survival rate on Day 60: 3/10
  Increase of life span: 104%
[5]; [7]
  Survival period: 15.2 ± 2.2 days
  complete remission: 3 out of 10
[6]
  optimal concentration (interleukin-2 production): 0.1 µg/mL
[6]; with Con A (2 μg/ml)
  activity at 0.001 µg/mL: 126%
  activity at 0.01 µg/mL: 130%
  activity at 0.1 µg/mL: 149%
  activity at 1 µg/mL: 135%
[6]; without Con A
  activity at 0.001 µg/mL: 171%
  activity at 0.01 µg/mL: 255%
  activity at 0.1 µg/mL: 281%
  activity at 1 µg/mL: 90%
